Assays:
Type in all cases: functional
Staphylococcus aureus = experiment: Antibacterial activity against Staphylococcus aureus ATCC 25923 at 0.4 mM; settings: read-out: IZ
Escherichia coli = experiment: Antibacterial activity against Escherichia coli ATCC 25922
Pseudomonas aeruginosa = experiment: Antibacterial activity against Pseudomonas aeruginosa ATCC 85327

SMILES: C=C/C(C)=C/C[C@H]1C(=C)C[C@H]2OC(=O)[C@@]3(C)CCC[C@@]1(C)[C@@H]23
- zone of inhibition at 400 µM (Staphylococcus aureus): 20 mm
- inhibition zone (IZ) (Escherichia coli): 13 mm
- inhibition zone (IZ) (Pseudomonas aeruginosa): 12 mm
